Experiment: xn = mol fraction of the nth substance listed
Settings: 101 kPa, Liquid; for electrical conductivity: Crison conductimeter (model GLP31); for speed of sound: Pulse-echo method; for mass density: Vibrating tube method

CCC[n+]1ccccc1.F[B-](F)(F)F [1-propylpyridinium tetrafluoroborate] + CO
Settings	electrical conductivity [S/m]	mass density [kg/m3]	speed of sound [m/s]	viscosity [mPa·s]
313.15 K, x1 = 0.028	–	829.037	1104.3	–
313.15 K, x1 = 0.0313	3.41	–	–	–
313.15 K, x1 = 0.0365	3.77	–	–	–
313.15 K, x1 = 0.0422	4.13	–	–	–
313.15 K, x1 = 0.0505	–	–	–	0.7578
313.15 K, x1 = 0.0577	–	876.892	1151.5	–
313.15 K, x1 = 0.0658	4.95	–	–	–
313.15 K, x1 = 0.0775	5.27	–	–	–
313.15 K, x1 = 0.0894	5.59	–	–	–
313.15 K, x1 = 0.0967	–	927.831	1204.8	–
313.15 K, x1 = 0.0993	–	–	–	1.273
313.15 K, x1 = 0.1294	6.03	–	–	–
313.15 K, x1 = 0.1409	6.12	–	–	–
313.15 K, x1 = 0.1459	–	979.474	1261.3	–
313.15 K, x1 = 0.1703	6.3	–	–	–
313.15 K, x1 = 0.191	–	–	–	2.523
313.15 K, x1 = 0.1952	–	1020.19	1314.3	–
313.15 K, x1 = 0.2002	6.26	–	–	–
313.15 K, x1 = 0.2456	6.05	–	–	–
313.15 K, x1 = 0.2819	5.68	–	–	–
313.15 K, x1 = 0.291	–	–	–	4.303
313.15 K, x1 = 0.3213	–	1094.6	1409.3	–
313.15 K, x1 = 0.3507	5.15	–	–	–
313.15 K, x1 = 0.3918	–	–	–	6.052
313.15 K, x1 = 0.3937	4.76	–	–	–
313.15 K, x1 = 0.4002	–	1127.34	1453.2	–
313.15 K, x1 = 0.4334	4.32	–	–	–
313.15 K, x1 = 0.464	3.91	–	–	–
313.15 K, x1 = 0.4929	–	–	–	8.501
313.15 K, x1 = 0.4965	–	1157.84	1492.7	–
313.15 K, x1 = 0.5398	3.26	–	–	–
313.15 K, x1 = 0.5988	–	1183.22	1527.3	–
313.15 K, x1 = 0.6117	–	–	–	12.48
313.15 K, x1 = 0.635	2.5	–	–	–
313.15 K, x1 = 0.6904	–	1201.32	1550.3	–
313.15 K, x1 = 0.7331	–	–	–	20
313.15 K, x1 = 0.7918	1.5	–	–	–
313.15 K, x1 = 0.7923	–	–	–	25.3
313.15 K, x1 = 0.8011	–	1218.9	1573.6	–
313.15 K, x1 = 0.8425	–	–	–	31.76
313.15 K, x1 = 0.8824	–	1229.83	1589.4	–
313.15 K, x1 = 0.894	1.05	–	–	–
313.15 K, x1 = 0.8956	–	–	–	38.87
313.15 K, x1 = 0.9384	0.94	–	–	–
313.15 K, x1 = 0.94	–	1236.33	1598.5	–
313.15 K, x1 = 0.9447	–	–	–	46.64
313.15 K, x1 = 1	0.799	1242.43	1606.3	56.02
323.15 K, x1 = 0.028	–	820.035	1073.8	–
323.15 K, x1 = 0.0313	3.87	–	–	–
323.15 K, x1 = 0.0365	4.25	–	–	–
323.15 K, x1 = 0.0422	4.68	–	–	–
323.15 K, x1 = 0.0505	–	–	–	0.673
323.15 K, x1 = 0.0577	–	867.868	1123.5	–
323.15 K, x1 = 0.0658	5.62	–	–	–
323.15 K, x1 = 0.0775	6	–	–	–
323.15 K, x1 = 0.0894	6.37	–	–	–
323.15 K, x1 = 0.0967	–	918.92	1178.7	–
323.15 K, x1 = 0.0993	–	–	–	1.009
323.15 K, x1 = 0.1294	6.98	–	–	–
323.15 K, x1 = 0.1409	7.05	–	–	–
323.15 K, x1 = 0.1459	–	970.736	1237	–
323.15 K, x1 = 0.1703	7.23	–	–	–
323.15 K, x1 = 0.191	–	–	–	1.915
323.15 K, x1 = 0.1952	–	1011.68	1291	–
323.15 K, x1 = 0.2002	7.2	–	–	–
323.15 K, x1 = 0.2456	7	–	–	–
323.15 K, x1 = 0.2819	6.64	–	–	–
323.15 K, x1 = 0.291	–	–	–	3.255
323.15 K, x1 = 0.3213	–	1086.6	1385.4	–
323.15 K, x1 = 0.3507	6.05	–	–	–
323.15 K, x1 = 0.3918	–	–	–	4.475
323.15 K, x1 = 0.3937	5.63	–	–	–
323.15 K, x1 = 0.4002	–	1119.59	1429.5	–
323.15 K, x1 = 0.4334	5.12	–	–	–
323.15 K, x1 = 0.464	4.78	–	–	–
323.15 K, x1 = 0.4929	–	–	–	6.13
323.15 K, x1 = 0.4965	–	1150.3	1467.3	–
323.15 K, x1 = 0.5398	3.97	–	–	–
323.15 K, x1 = 0.5988	–	1175.76	1503.9	–
323.15 K, x1 = 0.6117	–	–	–	8.91
323.15 K, x1 = 0.635	3.15	–	–	–
323.15 K, x1 = 0.6904	–	1193.84	1527.1	–
323.15 K, x1 = 0.7331	–	–	–	14.27
323.15 K, x1 = 0.7918	1.96	–	–	–
323.15 K, x1 = 0.7923	–	–	–	18.12
323.15 K, x1 = 0.8011	–	1211.54	1550.5	–
323.15 K, x1 = 0.8425	–	–	–	22.39
323.15 K, x1 = 0.8824	–	1222.55	1566.5	–
323.15 K, x1 = 0.894	1.48	–	–	–
323.15 K, x1 = 0.8956	–	–	–	26.94
323.15 K, x1 = 0.9384	1.34	–	–	–
323.15 K, x1 = 0.94	–	1229.15	1575	–
323.15 K, x1 = 0.9447	–	–	–	31.72
323.15 K, x1 = 1	1.15	1235.31	1583.3	36.99

— the NIST ThermoML archive (doi:10.1021/je401120a)
